Measurements reported in patent US20220071955A1, “Methods of Treatment, Prevention and Diagnosis” (The Walter and Eliza Hall Institute of Medical Research, priority 2018, published 2022).
“Also recorded” adds a separate entry of the source.

Experiments:
[1] = tested on: human iPSC-derived motor neurons; assay: IFNB1 and TNF gene induction (qPCR) in human iPSC-derived motor neurons; assay type: cell-based; conditions: motor neurons from healthy controls and ALS patients with TDP-43 mutations
Source text: (§1) Total RNA was isolated using the ISOLATE II RNA Mini Kit (Bioline) as per manufacturers' instructions and reverse transcribed using oligo(dT) nucleotides. Primers for cytokines, mitochondrial DNA and housekeeping genes were used as described previously (White et al., 2014; De Nardo et al., 2014). Others were designed using the Integrated DNA Technologies online tool as follows: hsIFNB1 FW, 5′-TGTCGCCTACTACCTGTTGTGC-3′ (SEQ ID NO:17); hsIFNB1 RV, 5′-AACTGCAACCTTTCGAAGCC-3′ (SEQ ID NO:18); mmIfnb1 FW: 5′-CCAGCTCCAAGAAAGGACGA-3′ (SEQ ID NO:19); mmIfnb1 RV: 5′-TGGATGGCAAAGGCAGTGTA-3′ (SEQ ID NO:20); mmIfna6 FW: 5′-GCTTTCCTGATGGTTTTGGTG-3′ (SEQ ID NO:21); mmIfna6 RV: 5′-AGGCTTTCTTGTTCCTGAGG-3′ (SEQ ID NO:22). Quantitative real-time PCR was performed using SYBR Green/ROX qPCR Master Mix (Thermo Scientific) on a ViiA 7 Real-Time PCR system (Thermo Scientific).
(§2) The established human iPSC lines used in this study included two controls (NCRM-1 and NCRM-5) from the National Institute of Neurological Disorders and Stroke, one control and one ALS patient from Alessandro Rosa, one ALS patient from RIKEN and one ALS patient (TALSTDP-47.10) from the Target ALS Foundation. All iPSCs were maintained on Matrigel (Corning, 354277)-coated 6-well plates in mTeSR1 (STEMCell Technologies, 85850) containing 1× Primocin (Invivogen, ant-pm-1) and passaged 1:6 using ReLeSR (STEMCell Technologies, 05872) with ROCK inhibitor Y-27632 (STEMCell Technologies, 72304) for the first 24 hours. The medium was replaced daily. Cells were cyropreserved in mTeSR1/10% DMSO.
(§3) Differentiation of iPSCs into ChAT^+ motor neurons was performed as described previously (Du et al., 2015) All medium and reagents from Gibco unless otherwise stated.
(§4) Human iPSCs were cultured in a chemically defined Neural Medium: DMEM/F12:Neurobasal (1:1) supplemented with 0.5×N2, 0.5×B27, 0.1 mM L-ascorbic acid (Sigma), 1× Glutamax and 1× Primocin (Invivogen) containing 3 μM CHIR99021 (STEMCell Technologies, 72054), 2 μM Dorsomorphin (STEMCell Technologies, 72102) and 2 μM SB431542 (STEMCell Technologies, 72234) for 6 days, and the medium was changed every other day.
The NEPs were dissociated with ReLeSR and cultured 1:6 on Matrigel-coated plates in the Neural Medium containing 1 μM CHIR99021, 2 μM Dorsomorphin and 2 μM SB431542 for 6 days. Y-27632 was used for the first 24 hours. The medium was changed every other day. At this stage of differentiation, MNPs were either expanded in the Neural Medium containing 3 μM CHIR99021, 2 μM Dorsomorphin, 2 μM SB431542, 0.1 μM all-trans retinoic acid (Sigma, R2500), 0.5 μM Purmorphamine (STEMCell Technologies, 72204) and 0.5 mM Valporic Acid (STEMCell Technologies, 72292) prior to MN diffrenertiation or cryopreserved in DMEM/F12 containing 10% FBS and 10% DMSO.
The MNPs were dissociated with ReLeSR and cultured on Matrigel-coated plates in the Neural Medium containing 0.5 μM all-trans RA and 0.1 μM Pur for 6 days into premature MNX1^+ MN. Y-27632 was used for the first 24 hours and the medium was replaced every other day. Subsequently, cells were detached with Accutase (Merck Millipore, SCR005) to generate single cell suspension and matured in the medium supplemented with 0.1 μM Compound E (STEMCell Technologies, 73954) for 10 days into ChAT^+ MNs. The medium was replaced every other day. Cells were plated in Matrigel-coated 8-well chamber slides (iBidi, 80826) to confirm cellular markers of MNs, including MNX1 (Merck Millipore, ABN174) and ChAT (Merck Millipore, […]) along with βIII-Tubulin (Promega, clone 5G8, G7121) staining using an inverted SP8 confocal microscopy (Leica).

[2] = tested on: TDP-43 overexpressing Thp1 cells; assay: IFNB1 and TNF induction (qPCR) in TDP-43 overexpressing Thp1 cells; assay type: cell-based, human; conditions: Thp1 cells overexpressing TDP-43 (WT or Q331K)
Protocol: (§5) Immortalised mouse embryonic fibroblasts (MEFs) lacking MAVS, PKR, cGAS, STING, Bax/Bak, Mcl1 or WT control were maintained in DME/KELSO medium (in-house DMEM containing 40 mM sodium bicarbonate, 1 mM HEPES, 0.0135 mM folic acid, 0.24 mM L-asparagine, 0.55 mM L-arginine, 1×Pen/Strep and 22.2 mM D-glucose) supplemented with 10% FBS (Sigma-Aldrich). Transfection of MEFs was performed using FuGENE HD (Promega). AGK−/− (gift from D. Stojanovski) and WT HEK293T cells were maintained in DMEM supplemented with 10% FBS, 100 U/mL Penicillin and 100 μg/mL Streptomycin. Lipofectamine 2000 (Life Technologies) was used to transfect HEK293T cells according to manufacturers' instructions. Human monocytic THP-1 cells were grown in RPMI-1640 with 10% FBS, 100 U/mL Penicillin and 100 μg/mL Streptomycin. The above cell culture was conducted at 37° C. in a humidified atmosphere with 10% CO2. […] The depletion was analysed using real-time qPCR to measure expression of mitochondrial DNA genes and nuclear genes (see Quantitative real-time PCR below).
as §1
Cytokine expression from qPCR is represented as gene expression relative to Hprt expression as δCt method. Where indicated, relative gene expression in TDP-43 WT or mutant overexpressing cells was further normalised to expression in vector control transfected/overexpressed cells of the same genotype in the same experiment and represented as fold change. Data are typically mean±s.e.m and analysed by t-test between two groups or one- or two-way ANOVA followed by a Sidak or Dunnett multiple comparison test as appropriate. GraphPad Prism 7 was used for all charts and statistical analyses. A P values <0.05 was considered as significant.
Finally, to determine if pharmacological blockade of the cGAS-STING pathway is feasible, recently described inhibitors of cGAS (RU.521, described in Vincent et al., 2017) and STING (H-151 described in Haag et al) were tested. […]

MEFs = assay: Super-resolution confocal microscopy of TDP-43-mediated DNA relocation from mitochondria into the cytoplasm; assay type: cell-based, mouse; conditions: CsA 25 μM
Protocol: MEF cell lines expressing doxycycline-induced Flagged TDP-43 were seeded onto glass coverslips (18 mm×18 mm, thickness 1½, Zeiss) for indicated times and prepared for imaging as previously described (McArthur et al., 2018). In brief, cells were fixed, blocked and incubated overnight at 4° C. with primary antibodies as follows: anti-Flag (In-house, 9H1), anti-DNA (ProGen, AC-30-10) and anti-TOM20 (Santa Cruz Biotech, sc-11415) in blocking buffer. Following two washes in PBS and an one-hour incubation with secondary antibodies [goat anti-rabbit AF647 (A21245), goat anti-mouse AF488 (A11001 and goat anti-rat AF568, A11077) from Life Technologies], coverslips were mounted onto the microscopy slide using Prolong Diamond Antifade Mountant (ThermoFisher Scientific). Three color imaging was performed on the OMX-SR system (GE Healthcare) using a 60 Å˜1.42 NA oil immersion lens (Olympus).

293T cells = assay: Ifnb1 gene expression induced by TDP-43 (qPCR); assay type: cell-based; conditions: CsA 25 μM
Protocol: as §5
Total RNA was isolated using the ISOLATE II RNA Mini Kit (Bioline) as per manufacturers' instructions and reverse transcribed using oligo(dT) nucleotides. […] Quantitative real-time PCR was performed using SYBR Green/ROX qPCR Master Mix (Thermo Scientific) on a ViiA 7 Real-Time PCR system (Thermo Scientific).

TDP-43 mutant mice = assay: Rotarod test in TDP-43 mutant mice with established disease; assay type: in vivo, mouse; conditions: H-151 (3.75 mM) i.p. every the other day for 4 weeks from 120 days of age
[3] = tested on: ALS patient iPSC-derived motor neurons; assay: LDH cytotoxicity assay and brightfield imaging of iPSC-derived motor neurons; assay type: cell-based, human; conditions: H-151 1 μM, 4-week treatment
Source text: as §2, §3
as §4, with “day. […]” for “day.”

Row | Compound | IFNB1 gene induction ([1]; ROS inhibitors 0.1-1 μM) | TNF gene induction ([1]; ROS inhibitors 0.1-1 μM) | IFNB1 induction [2] | TNF induction [2] | also measured
1 | COC1=C(OC)C(=O)C(CCCCCCCCCC[P+](c2ccccc2)(c2ccccc2)c2ccccc2)=C(C)C1=O [MitoQ] | prevent | prevent | – | – | –
2 | Cc1nn(-c2nc3ccc(Cl)c(Cl)c3[nH]2)c(O)c1C1OC(=O)c2ccccc21 (stereo not shown) [RU.521] | – | – | prevent | prevent | IFNB1 gene induction ([1]; RU.521 10 μM): prevent; TNF gene induction ([1]; RU.521 10 μM): prevent
3 | cyclosporin A [CsA] | – | – | – | – | TDP-43-mediated DNA relocation from mitochondria into the cytoplasm (MEFs): prevented mtDNA leakage into the cytoplasm; also recorded: significantly reduced; Ifnb1 gene expression induced by TDP-43 (293T cells): prevents
4 | CC1(C)CC(NC(=O)C[P+](c2ccccc2)(c2ccccc2)c2ccccc2)CC(C)(C)N1[O] [MitoTEMPO] | prevent | prevent | – | – | –
5 | CCc1ccc(NC(=O)Nc2c[nH]c3ccccc23)cc1 [H-151] | – | – | prevent | prevent | latency to fall in a rotarod test (TDP-43 mutant mice): significantly improved; IFNB1 gene induction ([1]; H-151 1 μM): prevent; TNF gene induction ([1]; H-151 1 μM): prevent; ALS-associated cytotoxicity (LDH, imaging) [3]: mitigates ALS-associated cytotoxicity
